As a reminder, the EC50 is the concentration that produces a half-maximal response.

Structures are written as SMILES.

T1 sequence (Q05941 23-502): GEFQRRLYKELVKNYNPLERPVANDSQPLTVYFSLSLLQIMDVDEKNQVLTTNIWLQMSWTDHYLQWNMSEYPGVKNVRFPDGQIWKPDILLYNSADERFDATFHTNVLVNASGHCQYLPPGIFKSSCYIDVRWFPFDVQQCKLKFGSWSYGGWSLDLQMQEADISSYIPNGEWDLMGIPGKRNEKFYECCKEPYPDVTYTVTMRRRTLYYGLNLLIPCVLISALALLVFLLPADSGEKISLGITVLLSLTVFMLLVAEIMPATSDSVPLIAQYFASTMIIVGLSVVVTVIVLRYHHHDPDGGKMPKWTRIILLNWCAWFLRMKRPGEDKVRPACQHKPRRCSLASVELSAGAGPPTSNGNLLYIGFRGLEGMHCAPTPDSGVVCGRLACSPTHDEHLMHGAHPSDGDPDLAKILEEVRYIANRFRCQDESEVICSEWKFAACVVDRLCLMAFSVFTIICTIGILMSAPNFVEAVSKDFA

One assay addresses T1, α7-HI (Rattus norvegicus, UniProt Q05941).
T1 construct: expressed in transfected cells
Kind of assay: FLIPR Ca2+-sensitive fluorescence assay, α7-HI (agonist activity) in HEK 293 cells. It counts as cell-based. Conditions: Table 4; Ca2+ flux, HEK-293 cells expressing the channel; read-out: FLIPR α7-HI (EC50). As for the experimental part:
I) α7 Nicotinic Acetycholine Receptor Binding. Membranes were prepared for binding using HEK293 cells stably expressing the rat α7 nicotinic acetycholine receptor (rat α7 nAChR). Cells were homogenized at 4° C. in hypotonic lysis buffer consisting of 10 mM Tris (pH 7.4), 5 mM EDTA and protease inhibitors and centrifuged at 32000×g for 20 minutes. The pellet was washed once in membrane wash buffer consisting of 50 mM Tris (pH 7.4), 1 mM EDTA and protease inhibitors and centrifuged at 32000×g for 20 minutes. This pellet was then resuspended in assay buffer consisting 50 mM KH2PO4 (pH 7.4 at 25° C.), 1 mM EDTA, 0.005% Triton-X 100 and 0.1% (v/v) Sigma Protease Inhibitor Cocktail. Aliquots were then frozen in dry ice/ethanol and kept at −80° C. until the day of the assay. II) A Ca^2+-Sensitive, Fluorescence-Based Assay α-7 for Nicotinic Acetylcholine Receptor Channel Function in Mammalian Cells (“FLIPR”). Summary: Lead compounds are evaluated for agonist activity at α-7, α3β4, α4αβ2, and α1β1δ1ε sub-types of nicotinic ACh receptor ion channels expressed in mammalian HEK 293 cells. Agonist potency and efficacy values are determined from kinetic fluorescence Ca^2+ influx measurements made using a 384 well FLIPR (Fluorescence Image Plate Reader). […] In this assay, channel expressing HEK cell lines seeded in 384 well assay plates are loaded with a membrane permeant fluorescent Ca^2+ indicator dye, whose 510 nm green emission signal increases in response to elevation of intracellular Ca^2+ concentration. The basal fluorescence from the cells is monitored in real time, followed by the acute addition of test compounds.
Materials and Methods: Reagents: The acetomethoxy (AM) ester of the Ca^2+ indicator dye Fluo-4 was obtained from InVitrogen, (Carlsbad, Calif.). Acetylcholine and all buffer constituents were purchased from Sigma Chemical Company, St. Louis, Mo. G418 and Minimal Essential Medium were purchased from InVitrogen Life Technologies, Carlsbad, Calif. Fetal bovine serum was purchased from (InVitrogen, Carlsbad, Calif.).
Cell Culture: HEK-293 cells were grown in Minimal Essential Medium containing 10% (v/v) fetal bovine serum at 37° C. in a 5% CO2 incubator. HEK-293 cells stably expressing the ion channels were grown in the same medium with the addition of 500 μg/ml G418.
Ca^2+ flux assays of Ca^2+ channels expressed in HEK-293 cells: HEK-293 cells expressing the ion channels of interest were plated in 384 well, black-walled, clear-bottomed, poly-D-lysine coated plates at a density of ˜20,000 cells/well in 20 μl of Minimal Essential Medium containing 10% (v/v) fetal bovine serum and incubated for 2 days at 29° C. in a 5% CO2 incubator. Prior to assay, cells were loaded with the Fluo-4 AM ester. […] Dye loading was allowed to proceed for 90 minutes at room temperature at which time the dye loading solution was removed and replaced with 40 μl/well of Hanks buffer. Cells loaded with dye were loaded onto a FLIPR384 (Molecular Devices, Sunnyvale, Calif.). Fluo-4 dye was excited using the 488 nm line of an argon laser. Emission was filtered using a 540+/−30 nm bandpass filter. For evaluation of the effects of test compounds using the Ca^2+ flux assay, compounds to be tested were provided in assay ready plates. For nicotinic receptor ion channel expressing cells, the assay was initiated by the addition of 20 μl/well of Hanks buffer containing test compounds. For all assays, data were collected at 1 Hz for 10 seconds (baseline), at which time the compound containing stimulus buffers are added, and further measurements collected at 0.33 Hz for 3 min.
Data Analysis: The statistical robustness of the nicotinic receptor Ca^2+ flux assays is determined from blanks and totals wells. […] The raw fluorescence units data files generated on the FLIPR plate reader are automatically exported and processed by in-house data analysis tools.
On the technique in general: Calcium assays in cells follow changes in intracellular calcium, usually with a dye or a luminescent sensor.
Regarding `COc1ccc2c(C(=O)N3C4CC5CN(CCC53)C4)n[nH]c2c1` (stereo not drawn) [Example 43, ((2S*,3aR*,5R*,7aS*)-(6-methoxy-1H-indazol-3-yl)(hexahydro-2,5-methanopyrrolo[3,2-c]pyridin-1(6H)-yl)methanone], the EC50 was determined as 23 nM.

As for `O=C(c1n[nH]c2ccc(Br)cc12)N1C2CC3CN(CCC31)C2` (stereo not drawn) [Example 44, ((2S*,3aR*,5R*,7aS*)-(5-bromo-1H-indazol-3-yl)(hexahydro-2,5-methanopyrrolo[3,2-c]pyridin-1(6H)-yl)methanone], the EC50 was over 100000 nM.

For the compound `O=C(c1n[nH]c2c(Cl)cccc12)N1C2CC3CN(CCC31)C2` (stereo not drawn) [Example 45, ((2S*,3aR*,5R*,7aS*)-(7-chloro-1H-indazol-3-yl)(hexahydro-2,5-methanopyrrolo[3,2-c]pyridin-1(6H)-yl)methanone], the EC50 is over 100000 nM.

`O=C(c1n[nH]c2cc(Cl)ccc12)N1C2CC3CN(CCC31)C2` (stereo not drawn) [Example 46, ((2S*,3aR*,5R*,7aS*)-(6-chloro-1H-indazol-3-yl)(hexahydro-2,5-methanopyrrolo[3,2-c]pyridin-1(6H)-yl)methanone]: the EC50 stood at 10 nM.

On to `O=C(c1noc2ccccc12)N1C2CC3CN(CCC31)C2` (stereo not drawn) [Example 47, ((2S*,3aR*,5R*,7aS*)-benzo[d]isoxazol-3-yl(hexahydro-2,5-methanopyrrolo[3,2-c]pyridin-1(6H)-yl)methanone], for which the EC50 was 1300 nM.

As to `COc1cccc2[nH]nc(C(=O)N3C4CC5CN(CCC53)C4)c12` (stereo not drawn) [Example 48, ((2S*,3aR*,5R*,7aS*)-(4-methoxy-1H-indazol-3-yl)(hexahydro-2,5-methanopyrrolo[3,2-c]pyridin-1(6H)-yl)methanone], the EC50 stood at 7400 nM.

`Cc1ccc2c(C(=O)N3C4CC5CN(CCC53)C4)n[nH]c2c1` (stereo not drawn) [Example 49, ((2S*,3aR*,5R*,7aS*)-(6-methyl-1H-indazol-3-yl)(hexahydro-2,5-methanopyrrolo[3,2-c]pyridin-1(6H)-yl)methanone]: the EC50 is 4.2 nM.

In the case of `Cc1ccc2c(C(=O)N3[C@H]4C[C@@H]5C[N@@](CC[C@@H]53)C4)n[nH]c2c1` [Example 49a, (2S,3aR,5R,7aS)-(6-methyl-1H-indazol-3-yl)(hexahydro-2,5-methanopyrrolo[3,2-c]pyridin-1(6H)-yl)methanone], the EC50 worked out at 3.1 nM.

For the compound `Cc1ccc2c(C(=O)N3[C@@H]4C[C@H]5C[N@](CC[C@H]53)C4)n[nH]c2c1` [Example 49b, (2R,3aS,5S,7aR)-(6-methyl-1H-indazol-3-yl)(hexahydro-2,5-methanopyrrolo[3,2-c]pyridin-1(6H)-yl)methanone], the half-maximal effective concentration (EC50) was 47 nM.

The same assay, now with this note: Table 5; Ca2+ flux, HEK-293 cells expressing the channel; read-out: FLIPR α7-HI (EC50).
For `O=C(c1n[nH]c2ccccc12)N1C2CC3C1CCCN3C2` (centres unmarked) [Example 50, (1H-indazol-3-yl)(octahydro-2,8-epiminoindolizin-9-yl)methanone], the EC50 came out at 360 nM.

As to `O=C(c1cc2cccc(Cl)c2s1)N1C2CC3C1CCCN3C2` (centres unmarked) [Example 51, (7-chlorobenzo[b]thiophen-2-yl)(octahydro-2,8-epiminoindolizin-9-yl)methanone], the EC50 is over 100000 nM.

The values are drawn from patent US9796713B2, “Tricyclic compounds as alpha-7 nicotinic acetylcholine receptor ligands” (BRISTOL-MYERS SQUIBB COMPANY, priority 2014, dated 2017).
